Paper PMC2633036, “Identifying Tumor Cell Growth Inhibitors by Combinatorial Chemistry and Zebrafish Assays” (PLoS ONE, 2009)

Biological target: T1, CDK2 (Homo sapiens, UniProt P24941)
T1 construct: CDK2/GST-Cyclin E kinase complex produced in baculovirus expression system; with Cyclin E (GST-Cyclin E)
Assay: radiometric kinase assay (gamma-32P-ATP, histone H1 substrate) with purified recombinant CDK2/cyclin E
Assay type: biochemical

SMILES	IC50 [µM]
O=c1[nH]c2c(nc3ccccn32)c2ccccc12 [13-1-a]	~100
O=c1[nH]c2c(nc3ccccn32)c2cccc(O)c12 [13-1-e]	1 to 2
